From PubChem BioAssay AID328 (DTP/NCI, 2004)
Where “and” joins values, the source holds several entries; their conditions need not be identical. Equal values may be shown once. Inconclusive results and toxic doses are left out. Rule for the calls: active = survival T/C of 150% or more; inactive = T/C below 125% in these data. Residues, ends and D or L forms follow the SMILES beside them. *: point of attachment. Cbz = O=C(OCc1ccccc1)*; NHNH2 = NN*

Test system: BDF1 mice, P388 leukemia ip, median survival T/C
Test: NCI In Vivo Anticancer Drug Screen. Data for tumor model P388 Leukemia (intraperitoneal) in B6D2F1 (BDF1) mice
Details: endpoint: median survival time, higher = longer survival
Method in brief: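 In tumour-bearing mice, survival after compound treatment is set against the vehicle group and given as a quotient.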

[1] = dose: 100.0 mg/kg/injection, schedule: Q01DX009 (ip), vehicle: saline with Tween-80
[2] = dose: 100.0 mg/kg/injection, schedule: Q04DX003 (ip), vehicle: saline with Tween-80
[3] = dose: 200.0 mg/kg/injection, schedule: Q01DX009 (ip), vehicle: saline with Tween-80
[4] = dose: 200.0 mg/kg/injection, schedule: Q04DX003 (ip), vehicle: saline with Tween-80
[5] = dose: 400.0 mg/kg/injection, schedule: Q04DX003 (ip), vehicle: saline with Tween-80
[6] = dose: 50.0 mg/kg/injection, schedule: Q01DX009 (ip), vehicle: saline with Tween-80
[7] = dose: 100.0 mg/kg/injection, schedule: Q01DX009 (ip), vehicle: water
[8] = dose: 100.0 mg/kg/injection, schedule: Q04DX003 (ip), vehicle: water
[9] = dose: 50.0 mg/kg/injection, schedule: Q01DX001 (ip), vehicle: saline sonified
[10] = dose: 100.0 mg/kg/injection, schedule: Q01DX001 (ip), vehicle: saline sonified
[11] = dose: 200.0 mg/kg/injection, schedule: Q01DX001 (ip), vehicle: saline sonified
[12] = dose: 50.0 mg/kg/injection, schedule: Q01DX009 (ip), vehicle: saline
[13] = dose: 25.0 mg/kg/injection, schedule: Q04DX003 (ip), vehicle: saline
[14] = dose: 50.0 mg/kg/injection, schedule: Q04DX003 (ip), vehicle: saline
[15] = dose: 100.0 mg/kg/injection, schedule: Q04DX003 (ip), vehicle: saline
[16] = dose: 100.0 mg/kg/injection, schedule: Q01DX009 (ip), vehicle: Klucel (hydroxypropylcellulose) (HPC)
[17] = dose: 200.0 mg/kg/injection, schedule: Q01DX009 (ip), vehicle: Klucel (hydroxypropylcellulose) (HPC)

Measured: T/C

CC(C)CCCBr
inactive: [1] 118 % of control | [2] 108 % of control | [3] 113 % of control | [4] 112 % of control | dose: 400.0 mg/kg/injection, schedule: Q01DX009 (ip), vehicle: saline with Tween-80 122 % of control | [5] 108 % of control

O=C1Oc2ccccc2C(=O)/C1=C1/C=C(c2ccccc2)SS1
inactive: [6] 90 % of control | [1] 88 % of control | [3] 90 % of control

CC1=C(C)CC2C(=O)C=CC(=O)C2C1 (stereo unspecified)
inactive: dose: 12.5 mg/kg/injection, schedule: Q01DX009 (ip), vehicle: water 95 % of control | dose: 25.0 mg/kg/injection, schedule: Q01DX009 (ip), vehicle: water 90 % of control | dose: 25.0 mg/kg/injection, schedule: Q04DX003 (ip), vehicle: water 113 % of control | dose: 50.0 mg/kg/injection, schedule: Q01DX009 (ip), vehicle: water 93 % of control | dose: 50.0 mg/kg/injection, schedule: Q04DX003 (ip), vehicle: water 113 % of control | [7] 100 % of control | [8] 105 % of control and 112 % of control

CCCCN(CCO)C(C#CC(C)(C)O)C(C)C (stereo unspecified)
inactive: [9] 110 % of control | [10] 110 % of control | [11] 105 % of control

O=C1Cc2ccc3c(c2O1)C(=O)c1ccccc1C3=O
inactive: dose: 100.0 mg/kg/injection, schedule: Q04DX002 (ip), vehicle: saline with Tween-80 106 % of control | dose: 200.0 mg/kg/injection, schedule: Q04DX002 (ip), vehicle: saline with Tween-80 100 % of control

COc1ccc2c(c1OC)C(=O)OC2(O)C1=NCCc2cc3c(cc21)OCO3 (stereo unspecified)
inactive: dose: 50.0 mg/kg/injection, schedule: Q01DX005 (ip), vehicle: saline with Tween-80 111 % of control | dose: 100.0 mg/kg/injection, schedule: Q01DX005 (ip), vehicle: saline with Tween-80 98 % of control | dose: 200.0 mg/kg/injection, schedule: Q01DX005 (ip), vehicle: saline with Tween-80 109 % of control

Cc1cc2nc3c(nc2cc1C)-c1ccccc1C3=O
inactive: [2] 110 % of control | [4] 100 % of control | [5] 100 % of control

CCN(CC)C(=O)COc1cc2c(O)c3c(O)c(C)c4c(c13)C(=O)C(C)(OC=CC(OC)C(C)C(OC(C)=O)C(C)C(O)C(C)C(O)C(C)C=CC=C(C)C(=O)N2)O4 (stereo unspecified)
inactive: [12] 109 % of control | dose: 100.0 mg/kg/injection, schedule: Q01DX009 (ip), vehicle: saline 109 % of control | dose: 200.0 mg/kg/injection, schedule: Q01DX009 (ip), vehicle: saline 123 % of control

Cc1ccc(NCc2nc(N)nc(Nc3ccc(C)cc3)n2)cc1
inactive: [9] 100 % of control | [10] 100 % of control | [11] 90 % of control

CC(C)C(NC(=O)C1CCCN1C(=O)OCc1ccccc1)C(=O)NN (stereo not drawn) (Cbz-Pro-Val-NHNH2; configuration not given here)
inactive: dose: 50.0 mg/kg/injection, schedule: Q04DX003 (ip), vehicle: saline with Tween-80 100 % of control | [2] 100 % of control | [4] 91 % of control | [5] 100 % of control

CN1CC2CC(C1)c1cccc(=O)n1C2 (stereo unspecified)
inactive: dose: 5.0 mg/kg/injection, schedule: Q01DX010 (ip), vehicle: saline 86 % of control | dose: 10.0 mg/kg/injection, schedule: Q01DX010 (ip), vehicle: saline 109 % of control | dose: 20.0 mg/kg/injection, schedule: Q01DX010 (ip), vehicle: saline 104 % of control | dose: 40.0 mg/kg/injection, schedule: Q01DX010 (ip), vehicle: saline 95 % of control

COC(=O)C(CSCSC)NC(=O)/C=C/c1cc(OC)ccc1OC (stereo unspecified)
inactive: [6] 93 % of control | [1] 92 % of control | [3] 88 % of control

CC1CCC2(C)CCC3(C)C(=CCC4C5(C)CCC(O)C(C)(C)C5CCC43C)C2C1C (stereo unspecified)
inactive: [7] 90 % of control | [8] 90 % of control | dose: 200.0 mg/kg/injection, schedule: Q04DX003 (ip), vehicle: water 90 % of control | dose: 400.0 mg/kg/injection, schedule: Q01DX009 (ip), vehicle: water 90 % of control | dose: 400.0 mg/kg/injection, schedule: Q04DX003 (ip), vehicle: water 90 % of control

CCCCN(C)c1ncnc2[nH]ncc12
inactive: dose: 25.0 mg/kg/injection, schedule: Q01DX009 (ip), vehicle: saline 100 % of control | [13] 95 % of control | [12] 109 % of control | [14] 95 % of control | [15] 91 % of control

O=C(CCl)NC(CO)C(=O)O (stereo unspecified)
inactive: [14] 91 % of control | [15] 100 % of control | dose: 200.0 mg/kg/injection, schedule: Q04DX003 (ip), vehicle: saline 91 % of control

CN(C)CCCN1c2ccc(O)cc2Sc2ccc(Cl)cc21
inactive: dose: 3.1 mg/kg/injection, schedule: Q01DX009 (ip), vehicle: other 90 % of control | dose: 6.2 mg/kg/injection, schedule: Q01DX009 (ip), vehicle: other 90 % of control | dose: 12.5 mg/kg/injection, schedule: Q01DX009 (ip), vehicle: other 104 % of control | dose: 25.0 mg/kg/injection, schedule: Q01DX009 (ip), vehicle: other 109 % of control | dose: 25.0 mg/kg/injection, schedule: Q01DX009 (ip), vehicle: saline with Tween-80 91 % of control | [6] 91 % of control | [1] 100 % of control

[Cl][Co][Cl].[NH-]CCC[NH-].[NH-]CCC[NH-]
inactive: [13] 105 % of control | [14] 110 % of control

N=C(Oc1ccccc1)c1ccccc1
inactive: [6] 100 % of control | [1] 102 % of control | [3] 102 % of control

O=NN(CS(=O)(=O)O)c1ccccc1
inactive: dose: 50.0 mg/kg/injection, schedule: Q01DX001 (ip), vehicle: saline with Tween-80 104 % of control | dose: 50.0 mg/kg/injection, schedule: Q04DX003 (ip), vehicle: Klucel (hydroxypropylcellulose) (HPC) 104 % of control | dose: 100.0 mg/kg/injection, schedule: Q01DX001 (ip), vehicle: saline with Tween-80 104 % of control | [16] 104 % of control | dose: 100.0 mg/kg/injection, schedule: Q04DX003 (ip), vehicle: Klucel (hydroxypropylcellulose) (HPC) 113 % of control | dose: 200.0 mg/kg/injection, schedule: Q01DX001 (ip), vehicle: saline with Tween-80 122 % of control | [17] 108 % of control | dose: 200.0 mg/kg/injection, schedule: Q04DX003 (ip), vehicle: Klucel (hydroxypropylcellulose) (HPC) 109 % of control

Cc1csc(NC(O)C(Cl)(Cl)Cl)n1 (stereo unspecified)
inactive: [6] 98 % of control | [1] 106 % of control | [3] 101 % of control

CCOC(=O)c1c(C)c2c(n1C)CCc1cn[nH]c1-2
inactive: dose: 50.0 mg/kg/injection, schedule: Q01DX009 (ip), vehicle: Klucel (hydroxypropylcellulose) (HPC) 103 % of control | [16] 120 % of control | [17] 106 % of control

NC(=O)NN=C1CSSC1
inactive: dose: 0.78 mg/kg/injection, schedule: Q01DX009 (ip), vehicle: saline with Tween-80 103 % of control | dose: 0.78 mg/kg/injection, schedule: Q04DX003 (ip), vehicle: saline with Tween-80 104 % of control | dose: 1.56 mg/kg/injection, schedule: Q01DX009 (ip), vehicle: saline with Tween-80 94 % of control | dose: 1.56 mg/kg/injection, schedule: Q04DX003 (ip), vehicle: saline with Tween-80 91 % of control | dose: 3.12 mg/kg/injection, schedule: Q01DX009 (ip), vehicle: saline with Tween-80 92 % of control | dose: 3.12 mg/kg/injection, schedule: Q04DX003 (ip), vehicle: saline with Tween-80 113 % of control | dose: 6.25 mg/kg/injection, schedule: Q01DX009 (ip), vehicle: saline with Tween-80 92 % of control | dose: 6.25 mg/kg/injection, schedule: Q04DX003 (ip), vehicle: saline with Tween-80 100 % of control | dose: 12.5 mg/kg/injection, schedule: Q01DX009 (ip), vehicle: saline with Tween-80 94 % of control | dose: 12.5 mg/kg/injection, schedule: Q04DX003 (ip), vehicle: saline with Tween-80 95 % of control

O=C(/C=C/c1ccc(OCc2ccccc2)cc1)c1cccc(Cl)c1
inactive: [6] 105 % of control | [1] 96 % of control | [3] 89 % of control
